PubChem BioAssay AID1259407 (Chemical Carcinogenesis Research Information System (CCRIS), 2018)
Active and inactive are the calls of the source. No rule for the calls is given here.

Tested on: CCRIS mutagenicity, Ames/micronucleus/aberration tests
Experiment: CCRIS mutagenicity studies

Measured: mutagenic call

CC(=O)OCC(=O)NCCCOc1cccc(CN2CCCCC2)c1
inactive: Test System: AMES SALMONELLA TYPHIMURIUM, Strain/Indicator: TA98, Metabolic Activation: NONE inactive; negative | Test System: AMES SALMONELLA TYPHIMURIUM, Strain/Indicator: TA98, Metabolic Activation: RAT, LIVER, S-9, PHENOBARBITAL AND 5,6-BENZOFLAVONE inactive; negative | Test System: AMES SALMONELLA TYPHIMURIUM, Strain/Indicator: TA100, Metabolic Activation: NONE inactive; negative | Test System: AMES SALMONELLA TYPHIMURIUM, Strain/Indicator: TA100, Metabolic Activation: RAT, LIVER, S-9, PHENOBARBITAL AND 5,6-BENZOFLAVONE inactive; negative | Test System: AMES SALMONELLA TYPHIMURIUM, Strain/Indicator: TA1535, Metabolic Activation: NONE inactive; negative | Test System: AMES SALMONELLA TYPHIMURIUM, Strain/Indicator: TA1535, Metabolic Activation: RAT, LIVER, S-9, PHENOBARBITAL AND 5,6-BENZOFLAVONE inactive; negative | Test System: AMES SALMONELLA TYPHIMURIUM, Strain/Indicator: TA1537, Metabolic Activation: NONE inactive; negative | Test System: AMES SALMONELLA TYPHIMURIUM, Strain/Indicator: TA1537, Metabolic Activation: RAT, LIVER, S-9, PHENOBARBITAL AND 5,6-BENZOFLAVONE inactive; negative | Test System: AMES SALMONELLA TYPHIMURIUM, Strain/Indicator: TA1538, Metabolic Activation: NONE inactive; negative | Test System: AMES SALMONELLA TYPHIMURIUM, Strain/Indicator: TA1538, Metabolic Activation: RAT, LIVER, S-9, PHENOBARBITAL AND 5,6-BENZOFLAVONE inactive; negative | Test System: E. COLI, Strain/Indicator: WP2 UVRA, Metabolic Activation: NONE inactive; negative | Test System: E. COLI, Strain/Indicator: WP2 UVRA, Metabolic Activation: RAT, LIVER, S-9, PHENOBARBITAL AND 5,6-BENZOFLAVONE inactive; negative

NNC(=O)CNc1ccc2ccccc2c1
inactive: Test System: AMES SALMONELLA TYPHIMURIUM, Strain/Indicator: TA98, Metabolic Activation: NONE, Method: STANDARD PLATE inactive; negative | Test System: AMES SALMONELLA TYPHIMURIUM, Strain/Indicator: TA98, Metabolic Activation: RAT, LIVER, S-9, AROCLOR 1254, Method: STANDARD PLATE inactive; negative | Test System: AMES SALMONELLA TYPHIMURIUM, Strain/Indicator: TA100, Metabolic Activation: NONE, Method: STANDARD PLATE inactive; negative | Test System: AMES SALMONELLA TYPHIMURIUM, Strain/Indicator: TA100, Metabolic Activation: RAT, LIVER, S-9, AROCLOR 1254, Method: STANDARD PLATE inactive; negative | Test System: AMES SALMONELLA TYPHIMURIUM, Strain/Indicator: TA1537, Metabolic Activation: NONE, Method: STANDARD PLATE inactive; negative | Test System: AMES SALMONELLA TYPHIMURIUM, Strain/Indicator: TA1537, Metabolic Activation: RAT, LIVER, S-9, AROCLOR 1254, Method: STANDARD PLATE inactive; negative

CCCCCCC=O
inactive: Test System: AMES SALMONELLA TYPHIMURIUM, Strain/Indicator: TA97, Metabolic Activation: HAMSTER, LIVER, S-9, AROCLOR 1254 (10%), Method: PREINCUBATION inactive; negative | Test System: AMES SALMONELLA TYPHIMURIUM, Strain/Indicator: TA97, Metabolic Activation: HAMSTER, LIVER, S-9, AROCLOR 1254 (30%), Method: PREINCUBATION inactive; negative | Test System: AMES SALMONELLA TYPHIMURIUM, Strain/Indicator: TA97, Metabolic Activation: NONE, Method: PREINCUBATION inactive; negative | Test System: AMES SALMONELLA TYPHIMURIUM, Strain/Indicator: TA97, Metabolic Activation: RAT, LIVER, S-9, AROCLOR 1254 (10%), Method: PREINCUBATION inactive; negative | Test System: AMES SALMONELLA TYPHIMURIUM, Strain/Indicator: TA97, Metabolic Activation: RAT, LIVER, S-9, AROCLOR 1254 (30%), Method: PREINCUBATION inactive; negative | Test System: AMES SALMONELLA TYPHIMURIUM, Strain/Indicator: TA98, Metabolic Activation: HAMSTER, LIVER, S-9, AROCLOR 1254 (10%), Method: PREINCUBATION inactive; negative | Test System: AMES SALMONELLA TYPHIMURIUM, Strain/Indicator: TA98, Metabolic Activation: HAMSTER, LIVER, S-9, AROCLOR 1254 (30%), Method: PREINCUBATION inactive; negative | Test System: AMES SALMONELLA TYPHIMURIUM, Strain/Indicator: TA98, Metabolic Activation: NONE, Method: PREINCUBATION inactive; negative | Test System: AMES SALMONELLA TYPHIMURIUM, Strain/Indicator: TA98, Metabolic Activation: RAT, LIVER, S-9, AROCLOR 1254 (10%), Method: PREINCUBATION inactive; negative | Test System: AMES SALMONELLA TYPHIMURIUM, Strain/Indicator: TA98, Metabolic Activation: RAT, LIVER, S-9, AROCLOR 1254 (30%), Method: PREINCUBATION inactive; negative | Test System: AMES SALMONELLA TYPHIMURIUM, Strain/Indicator: TA100, Metabolic Activation: HAMSTER, LIVER, S-9, AROCLOR 1254 (10%), Method: PREINCUBATION inactive; negative | Test System: AMES SALMONELLA TYPHIMURIUM, Strain/Indicator: TA100, Metabolic Activation: HAMSTER, LIVER, S-9, AROCLOR 1254 (30%), Method: PREINCUBATION inactive; negative | Test System: AMES SALMONELLA TYPHIMURIUM, Strain/Indicator: TA100, Metabolic Activation: NONE, Method: PREINCUBATION inactive; negative | Test System: AMES SALMONELLA TYPHIMURIUM, Strain/Indicator: TA100, Metabolic Activation: RAT, LIVER, S-9, AROCLOR 1254 (10%), Method: PREINCUBATION inactive; negative | Test System: AMES SALMONELLA TYPHIMURIUM, Strain/Indicator: TA100, Metabolic Activation: RAT, LIVER, S-9, AROCLOR 1254 (30%), Method: PREINCUBATION inactive; negative | Test System: AMES SALMONELLA TYPHIMURIUM, Strain/Indicator: TA1535, Metabolic Activation: HAMSTER, LIVER, S-9, AROCLOR 1254 (10%), Method: PREINCUBATION inactive; negative | Test System: AMES SALMONELLA TYPHIMURIUM, Strain/Indicator: TA1535, Metabolic Activation: HAMSTER, LIVER, S-9, AROCLOR 1254 (30%), Method: PREINCUBATION inactive; negative | Test System: AMES SALMONELLA TYPHIMURIUM, Strain/Indicator: TA1535, Metabolic Activation: NONE, Method: PREINCUBATION inactive; negative | Test System: AMES SALMONELLA TYPHIMURIUM, Strain/Indicator: TA1535, Metabolic Activation: RAT, LIVER, S-9, AROCLOR 1254 (10%), Method: PREINCUBATION inactive; negative | Test System: AMES SALMONELLA TYPHIMURIUM, Strain/Indicator: TA1535, Metabolic Activation: RAT, LIVER, S-9, AROCLOR 1254 (30%), Method: PREINCUBATION inactive; negative | Test System: AMES SALMONELLA TYPHIMURIUM, Strain/Indicator: TA1537, Metabolic Activation: HAMSTER, LIVER, S-9, AROCLOR 1254 (30%), Method: PREINCUBATION inactive; negative | Test System: AMES SALMONELLA TYPHIMURIUM, Strain/Indicator: TA1537, Metabolic Activation: NONE, Method: PREINCUBATION inactive; negative | Test System: AMES SALMONELLA TYPHIMURIUM, Strain/Indicator: TA1537, Metabolic Activation: RAT, LIVER, S-9, AROCLOR 1254 (30%), Method: PREINCUBATION inactive; negative
